What was measured:
[1] = tested on: tumor cell growth in vitro; test: Tumor cell growth in vitro / cell culture; assay type: cell-based
[2] = tested on: human non small-cell lung carcinoma (NSCLC) line H-157; test: H-157 NSCLC xenograft in nude mice, tumor growth; assay type: in vivo
Procedure: The potentiating effect of bioresponse modifiers on chemotherapeutic agents was evaluated in an in vivo standard pharmacological test procedure in which a human non small cell type lung cancer (NSCLC) cell line was engrafted onto the flanks of immunodeficient nude mice. The following briefly describes the test procedure used and results obtained. [R-(R*,R*)]-N-[(R)-6-Carboxy-N^2-[[2-carboxy-1-methyl-2-[(1-oxoheptyl)amino]ethoxy]carbonyl]-L-lysyl]-alanine was used as a representative bioresponse modifier and paclitaxcel was used a representative chemotherapeutic agent.
Balb-c nu/nu female mice were obtained from Charles River Laboratories at 6-8 weeks of age and used experimentally at 8-10 weeks of age. The human non small-cell lung carcinoma (NSCLC) line H-157 was obtained from the American tissue culture collection (ATCC) (Bethesda, Md.). Cells were grown in RPMI medium with 10% fetal bovine serum.
Mice were injected subcutaneously with 7.5×10^6H-157 NSCLC tumor cells. Tumors were allowed to develop until they reached a size of 80-150 mg. Tumor size was determined using vernier calipers to measure length (l) and width (w). The tumor volume was estimated using the formula l×w^2/2. The volume in mm^3 can be converted to milligrams directly assuming unit density. Seven days after injection, mice were randomized (day 0) into groups of 10 with a mean tumor mass of 100 mg. Treatment groups received paclitaxcel (30 mg/kg) on day 0 and either vehicle or [R-(R*,R*)]-N-[(R)-6-Carboxy-N^2-[[2-carboxy-1-methyl-2-[(1-oxoheptyl)amino]ethoxy]carbonyl]-L-lysyl]-alanine (100 μg/kg) on days 1 and 8.

Row | SMILES | potentiation of the growth inhibitory effect of paclitaxcel in cell culture ([1]; cell culture, with paclitaxcel) | direct inhibition of tumor cell growth in vitro ([1]; in vitro) | % Suppression (Day 7) ([2]; Day 7, versus untreated control, paclitaxcel 30 mg/kg day 0, vehicle or CI 100 μg/kg days 1 and 8) [%] | Tumor size (mg) Day 7 ([2]; Day 7, paclitaxcel 30 mg/kg day 0, vehicle or CI 100 μg/kg days 1 and 8, mean ± standard deviation, 5 evaluations, 10 mice/group) | % Suppression (Day 14) ([2]; Day 14, versus untreated control, paclitaxcel 30 mg/kg day 0, vehicle or CI 100 μg/kg days 1 and 8) [%] | Tumor size (mg) Day 14 ([2]; Day 14, paclitaxcel 30 mg/kg day 0, vehicle or CI 100 μg/kg days 1 and 8, mean ± standard deviation, 5 evaluations, 10 mice/group) [mg] | tumor cell growth (in words) ([2]; day 7, Student's t test) | tumor growth (in words) ([2]; day 14)
1 | CCCCCCC(=O)N[C@@H](C(=O)O)[C@@H](C)OC(=O)N[C@@H](CCC[C@@H](N)C(=O)O)C(=O)NC(C)C(=O)O (relative stereo) [CI, [R-(R*,R*)]-N-[(R)-6-carboxy-N^2-[[2-carboxy-1-methyl-2-[(1-oxoheptyl)amino]ethoxy]carbonyl]-L-lysyl]-alanine] | nor does it potentiate the growth inhibitory effect of paclitaxcel in cell culture | does not directly inhibit tumor cell growth in vitro | – | – | – | – | – | –
2 | CC(=O)O[C@H]1C(=O)[C@@]2(C)[C@H]([C@H](OC(=O)c3ccccc3)[C@]3(O)C[C@H](OC(=O)[C@H](O)[C@@H](NC(=O)c4ccccc4)c4ccccc4)C(C)=C1C3(C)C)[C@]1(OC(C)=O)CO[C@@H]1C[C@@H]2O [Paclitaxcel, paclitaxcel] | – | – | 30 | ^c289 ± 108 mg | 30 | 866 ± 348 | inhibited tumor cell growth | not significantly suppressed versus control

Source: patent publication US7465754B1, “Method of potentiating chemotherapy and treating solid tumors” (Wyeth, priority 1999, dated 2008)
